According to ChEMBL document CHEMBL4507284, “Data for DCP probe BI-1230” (2021):

Legend:
[1] = system: Tyrosine-protein kinase ABL1 (Homo sapiens), P00519 [T315I]; settings: Compound concentration 1000.0 nM
[2] = molecular target: Tyrosine-protein kinase ABL1 (Homo sapiens) (UniProt P00519); settings: Compound concentration 1000.0 nM
[3] = molecular target: Activin receptor type-1B (Homo sapiens) (UniProt P36896); settings: Compound concentration 1000.0 nM
[4] = molecular target: Tyrosine-protein kinase receptor UFO (Homo sapiens) (UniProt P30530); settings: Compound concentration 1000.0 nM
[5] = molecular target: Tyrosine-protein kinase Blk (Homo sapiens) (UniProt P51451); settings: Compound concentration 1000.0 nM
[6] = molecular target: Calcium/calmodulin-dependent protein kinase type II subunit alpha (Homo sapiens) (UniProt Q9UQM7); settings: Compound concentration 1000.0 nM
[7] = molecular target: Calcium/calmodulin-dependent protein kinase type IV (Homo sapiens) (UniProt Q16566); settings: Compound concentration 1000.0 nM
Calcium/calmodulin-dependent protein kinase type IV (Homo sapiens), sequence (Q16566 whole entry): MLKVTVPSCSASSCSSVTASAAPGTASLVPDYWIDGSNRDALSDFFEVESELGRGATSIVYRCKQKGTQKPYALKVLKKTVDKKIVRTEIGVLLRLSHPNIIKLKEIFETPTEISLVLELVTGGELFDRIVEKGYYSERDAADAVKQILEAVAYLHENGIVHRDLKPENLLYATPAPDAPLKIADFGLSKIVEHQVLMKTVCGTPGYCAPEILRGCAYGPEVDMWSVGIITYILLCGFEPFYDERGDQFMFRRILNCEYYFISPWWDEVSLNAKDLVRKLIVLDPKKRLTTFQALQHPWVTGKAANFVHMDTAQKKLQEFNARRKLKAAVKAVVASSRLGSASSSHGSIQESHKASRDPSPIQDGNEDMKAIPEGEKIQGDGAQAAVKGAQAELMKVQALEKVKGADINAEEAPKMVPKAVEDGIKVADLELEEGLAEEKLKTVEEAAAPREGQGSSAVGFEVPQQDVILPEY

[8] = molecular target: Cyclin-dependent kinase 13 (Homo sapiens) (UniProt Q14004); settings: Compound concentration 1000.0 nM
[9] = molecular target: Cyclin-dependent kinase 4 (Homo sapiens) (UniProt P11802); settings: Compound concentration 1000.0 nM
[10] = molecular target: Cyclin-dependent kinase-like 5 (Homo sapiens) (UniProt O76039); settings: Compound concentration 1000.0 nM
[11] = molecular target: Serine/threonine-protein kinase Chk2 (Homo sapiens) (UniProt O96017); settings: Compound concentration 1000.0 nM
[12] = molecular target: Casein kinase I isoform delta (Homo sapiens) (UniProt P48730); settings: Compound concentration 1000.0 nM
[13] = molecular target: Megakaryocyte-associated tyrosine-protein kinase (Homo sapiens) (UniProt P42679); settings: Compound concentration 1000.0 nM
[14] = molecular target: Epithelial discoidin domain-containing receptor 1 (Homo sapiens) (UniProt Q08345); settings: Compound concentration 1000.0 nM
[15] = system: Epidermal growth factor receptor (Homo sapiens), P00533 [L861Q]; settings: Compound concentration 1000.0 nM
[16] = molecular target: Eukaryotic translation initiation factor 2-alpha kinase 1 (Homo sapiens) (UniProt Q9BQI3); settings: Compound concentration 1000.0 nM
Eukaryotic translation initiation factor 2-alpha kinase 1 (Homo sapiens), sequence (Q9BQI3 whole entry): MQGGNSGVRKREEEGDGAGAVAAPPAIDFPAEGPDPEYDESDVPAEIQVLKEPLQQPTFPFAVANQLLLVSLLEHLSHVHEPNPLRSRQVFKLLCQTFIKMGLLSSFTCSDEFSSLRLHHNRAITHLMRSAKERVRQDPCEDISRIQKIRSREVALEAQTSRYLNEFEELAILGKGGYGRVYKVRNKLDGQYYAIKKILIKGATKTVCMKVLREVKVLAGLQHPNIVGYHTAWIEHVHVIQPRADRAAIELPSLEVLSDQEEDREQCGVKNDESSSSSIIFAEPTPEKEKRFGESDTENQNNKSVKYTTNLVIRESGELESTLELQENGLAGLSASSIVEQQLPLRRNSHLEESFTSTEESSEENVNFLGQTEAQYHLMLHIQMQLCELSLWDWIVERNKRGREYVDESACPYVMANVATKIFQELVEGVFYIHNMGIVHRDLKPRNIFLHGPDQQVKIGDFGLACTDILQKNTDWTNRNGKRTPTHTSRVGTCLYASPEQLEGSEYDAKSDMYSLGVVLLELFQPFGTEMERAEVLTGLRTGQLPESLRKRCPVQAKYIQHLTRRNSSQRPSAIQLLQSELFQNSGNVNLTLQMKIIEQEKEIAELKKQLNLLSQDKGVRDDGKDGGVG

[17] = molecular target: Ephrin type-A receptor 2 (Homo sapiens) (UniProt P29317); settings: Compound concentration 1000.0 nM
[18] = molecular target: Ephrin type-A receptor 7 (Homo sapiens) (UniProt Q15375); settings: Compound concentration 1000.0 nM
[19] = molecular target: Ephrin type-B receptor 1 (Homo sapiens) (UniProt P54762); settings: Compound concentration 1000.0 nM
[20] = molecular target: Mitogen-activated protein kinase 15 (Homo sapiens) (UniProt Q8TD08); settings: Compound concentration 1000.0 nM
[21] = molecular target: Focal adhesion kinase 1 (Homo sapiens) (UniProt Q05397); settings: Compound concentration 1000.0 nM
[22] = molecular target: Receptor-type tyrosine-protein kinase FLT3 (Homo sapiens) (UniProt P36888); settings: Compound concentration 1000.0 nM
[23] = molecular target: Vascular endothelial growth factor receptor 3 (Homo sapiens) (UniProt P35916); settings: Compound concentration 1000.0 nM
Vascular endothelial growth factor receptor 3 (Homo sapiens), sequence (P35916 whole entry): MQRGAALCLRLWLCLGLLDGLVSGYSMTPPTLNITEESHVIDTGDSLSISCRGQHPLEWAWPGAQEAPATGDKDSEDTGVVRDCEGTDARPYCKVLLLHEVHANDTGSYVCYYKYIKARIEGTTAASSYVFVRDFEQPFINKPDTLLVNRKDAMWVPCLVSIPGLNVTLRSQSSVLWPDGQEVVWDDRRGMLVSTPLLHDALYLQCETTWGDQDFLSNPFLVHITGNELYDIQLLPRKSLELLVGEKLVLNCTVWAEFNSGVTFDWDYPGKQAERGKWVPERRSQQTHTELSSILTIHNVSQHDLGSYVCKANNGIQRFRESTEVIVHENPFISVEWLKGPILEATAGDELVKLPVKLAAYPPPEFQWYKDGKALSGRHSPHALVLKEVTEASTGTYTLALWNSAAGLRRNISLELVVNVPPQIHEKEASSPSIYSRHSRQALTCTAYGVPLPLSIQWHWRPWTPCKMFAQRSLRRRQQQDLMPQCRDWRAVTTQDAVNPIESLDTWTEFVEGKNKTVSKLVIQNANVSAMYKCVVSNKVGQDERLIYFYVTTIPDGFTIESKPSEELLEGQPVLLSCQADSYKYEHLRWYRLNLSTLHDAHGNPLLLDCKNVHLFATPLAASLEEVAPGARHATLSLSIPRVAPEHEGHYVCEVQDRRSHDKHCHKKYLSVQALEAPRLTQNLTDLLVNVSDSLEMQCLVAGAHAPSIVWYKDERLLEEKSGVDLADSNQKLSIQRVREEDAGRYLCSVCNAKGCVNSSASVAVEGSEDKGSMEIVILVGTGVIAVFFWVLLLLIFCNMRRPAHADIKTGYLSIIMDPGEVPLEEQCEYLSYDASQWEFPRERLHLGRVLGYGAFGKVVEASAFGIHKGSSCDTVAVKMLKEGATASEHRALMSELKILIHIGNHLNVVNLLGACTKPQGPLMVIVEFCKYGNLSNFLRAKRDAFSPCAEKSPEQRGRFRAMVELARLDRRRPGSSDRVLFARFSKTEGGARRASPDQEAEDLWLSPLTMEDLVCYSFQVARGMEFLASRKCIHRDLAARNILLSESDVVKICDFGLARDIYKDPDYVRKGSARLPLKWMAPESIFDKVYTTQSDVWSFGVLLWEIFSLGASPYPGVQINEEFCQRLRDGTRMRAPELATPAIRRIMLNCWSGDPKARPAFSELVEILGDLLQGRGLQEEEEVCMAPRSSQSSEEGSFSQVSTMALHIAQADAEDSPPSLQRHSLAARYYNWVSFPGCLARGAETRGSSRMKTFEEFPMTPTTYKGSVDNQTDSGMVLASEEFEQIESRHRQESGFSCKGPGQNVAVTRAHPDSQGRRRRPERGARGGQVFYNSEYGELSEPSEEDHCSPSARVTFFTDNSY

[24] = system: Mast/stem cell growth factor receptor Kit (Homo sapiens), P10721 [D816H]; settings: Compound concentration 1000.0 nM
[25] = molecular target: Leukocyte tyrosine kinase receptor (Homo sapiens) (UniProt P29376); settings: Compound concentration 1000.0 nM
[26] = molecular target: Mitogen-activated protein kinase kinase kinase 4 (Homo sapiens) (UniProt Q9Y6R4); settings: Compound concentration 1000.0 nM
[27] = molecular target: MAP kinase-activated protein kinase 2 (Homo sapiens) (UniProt P49137); settings: Compound concentration 1000.0 nM
MAP kinase-activated protein kinase 2 (Homo sapiens), sequence (P49137 whole entry, looked up): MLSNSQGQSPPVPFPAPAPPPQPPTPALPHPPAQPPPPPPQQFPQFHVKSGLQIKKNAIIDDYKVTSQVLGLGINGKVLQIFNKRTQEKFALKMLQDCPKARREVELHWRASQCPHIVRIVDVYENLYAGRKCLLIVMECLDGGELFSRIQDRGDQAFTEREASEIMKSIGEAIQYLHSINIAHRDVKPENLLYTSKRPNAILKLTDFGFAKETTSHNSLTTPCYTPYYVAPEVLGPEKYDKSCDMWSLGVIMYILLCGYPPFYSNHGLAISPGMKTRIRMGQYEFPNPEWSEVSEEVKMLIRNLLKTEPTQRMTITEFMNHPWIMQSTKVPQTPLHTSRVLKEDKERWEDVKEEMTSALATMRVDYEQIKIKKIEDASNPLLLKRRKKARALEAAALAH

[28] = system: Hepatocyte growth factor receptor (Homo sapiens), P08581 [M1250T]; settings: Compound concentration 1000.0 nM
[29] = molecular target: Serine/threonine-protein kinase MRCK beta (Homo sapiens) (UniProt Q9Y5S2); settings: Compound concentration 1000.0 nM
Serine/threonine-protein kinase MRCK beta (Homo sapiens), sequence (Q9Y5S2 whole entry): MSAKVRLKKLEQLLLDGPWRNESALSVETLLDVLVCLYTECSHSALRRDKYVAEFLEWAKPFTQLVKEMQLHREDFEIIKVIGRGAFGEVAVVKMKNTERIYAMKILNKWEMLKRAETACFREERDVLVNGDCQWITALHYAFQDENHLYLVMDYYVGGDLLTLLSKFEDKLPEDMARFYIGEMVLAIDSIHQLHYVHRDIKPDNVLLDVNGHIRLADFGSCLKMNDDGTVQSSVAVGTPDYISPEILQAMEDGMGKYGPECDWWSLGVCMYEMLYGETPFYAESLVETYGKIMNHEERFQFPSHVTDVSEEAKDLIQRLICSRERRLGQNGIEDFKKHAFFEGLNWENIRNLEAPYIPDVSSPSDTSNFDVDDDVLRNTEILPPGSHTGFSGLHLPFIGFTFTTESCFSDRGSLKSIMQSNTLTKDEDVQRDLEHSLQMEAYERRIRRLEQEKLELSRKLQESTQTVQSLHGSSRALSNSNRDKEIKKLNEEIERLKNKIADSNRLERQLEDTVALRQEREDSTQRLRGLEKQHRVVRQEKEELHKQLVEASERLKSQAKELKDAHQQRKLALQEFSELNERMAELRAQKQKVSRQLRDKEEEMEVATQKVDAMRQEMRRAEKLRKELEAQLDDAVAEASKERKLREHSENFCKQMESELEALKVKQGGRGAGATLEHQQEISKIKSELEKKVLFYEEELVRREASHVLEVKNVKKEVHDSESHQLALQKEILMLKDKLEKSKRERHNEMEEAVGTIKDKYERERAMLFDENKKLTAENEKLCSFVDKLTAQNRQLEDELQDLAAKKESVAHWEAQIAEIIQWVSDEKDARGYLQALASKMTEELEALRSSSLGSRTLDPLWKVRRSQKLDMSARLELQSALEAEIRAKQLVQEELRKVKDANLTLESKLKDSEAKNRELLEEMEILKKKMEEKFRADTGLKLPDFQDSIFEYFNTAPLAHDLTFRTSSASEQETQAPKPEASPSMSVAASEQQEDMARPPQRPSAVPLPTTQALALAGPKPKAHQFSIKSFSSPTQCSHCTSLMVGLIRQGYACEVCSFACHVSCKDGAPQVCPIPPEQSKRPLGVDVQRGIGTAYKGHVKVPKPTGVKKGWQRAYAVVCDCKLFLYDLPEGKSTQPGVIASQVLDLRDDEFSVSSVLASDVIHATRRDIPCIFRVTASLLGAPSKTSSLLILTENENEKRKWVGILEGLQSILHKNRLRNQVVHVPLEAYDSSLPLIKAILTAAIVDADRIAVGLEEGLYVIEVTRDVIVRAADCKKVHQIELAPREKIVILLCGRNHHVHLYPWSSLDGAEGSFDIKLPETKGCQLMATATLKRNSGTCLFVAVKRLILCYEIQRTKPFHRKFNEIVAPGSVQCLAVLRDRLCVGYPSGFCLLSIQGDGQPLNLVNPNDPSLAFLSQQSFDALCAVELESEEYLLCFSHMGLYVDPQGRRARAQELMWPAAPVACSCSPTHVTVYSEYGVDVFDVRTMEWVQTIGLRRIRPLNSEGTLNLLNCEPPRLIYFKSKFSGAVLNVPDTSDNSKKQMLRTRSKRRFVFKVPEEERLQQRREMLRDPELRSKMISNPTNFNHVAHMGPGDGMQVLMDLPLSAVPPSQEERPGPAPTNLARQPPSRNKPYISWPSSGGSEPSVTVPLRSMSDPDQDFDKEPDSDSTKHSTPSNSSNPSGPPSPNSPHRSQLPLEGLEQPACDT

[30] = molecular target: Serine/threonine-protein kinase PAK 4 (Homo sapiens) (UniProt O96013); settings: Compound concentration 1000.0 nM
[31] = molecular target: Serine/threonine-protein kinase PAK 5 (Homo sapiens) (UniProt Q9P286); settings: Compound concentration 1000.0 nM
[32] = molecular target: 3-phosphoinositide-dependent protein kinase 1 (Homo sapiens) (UniProt O15530); settings: Compound concentration 1000.0 nM
[33] = system: Phosphatidylinositol 4,5-bisphosphate 3-kinase catalytic subunit alpha isoform (Homo sapiens), P42336 [Q546K]; settings: Compound concentration 1000.0 nM
[34] = molecular target: Serine/threonine-protein kinase PLK1 (Homo sapiens) (UniProt P53350); settings: Compound concentration 1000.0 nM
[35] = molecular target: Protein kinase C iota type (Homo sapiens) (UniProt P41743); settings: Compound concentration 1000.0 nM
[36] = molecular target: Serine/threonine-protein kinase RIO1 (Homo sapiens) (UniProt Q9BRS2); settings: Compound concentration 1000.0 nM
[37] = molecular target: SRSF protein kinase 3 (Homo sapiens) (UniProt Q9UPE1); settings: Compound concentration 1000.0 nM
[38] = molecular target: Serine/threonine-protein kinase TAO1 (Homo sapiens) (UniProt Q7L7X3); settings: Compound concentration 1000.0 nM
[39] = molecular target: Serine/threonine-protein kinase TAO3 (Homo sapiens) (UniProt Q9H2K8); settings: Compound concentration 1000.0 nM
[40] = molecular target: Serine/threonine-protein kinase TBK1 (Homo sapiens) (UniProt Q9UHD2); settings: Compound concentration 1000.0 nM
[41] = molecular target: Serine/threonine-protein kinase tousled-like 1 (Homo sapiens) (UniProt Q9UKI8); settings: Compound concentration 1000.0 nM
[42] = molecular target: BDNF/NT-3 growth factors receptor (Homo sapiens) (UniProt Q16620); settings: Compound concentration 1000.0 nM
[43] = molecular target: Serine/threonine-protein kinase 32C (Homo sapiens) (UniProt Q86UX6); settings: Compound concentration 1000.0 nM
Serine/threonine-protein kinase 32C (Homo sapiens), sequence (Q86UX6 whole entry): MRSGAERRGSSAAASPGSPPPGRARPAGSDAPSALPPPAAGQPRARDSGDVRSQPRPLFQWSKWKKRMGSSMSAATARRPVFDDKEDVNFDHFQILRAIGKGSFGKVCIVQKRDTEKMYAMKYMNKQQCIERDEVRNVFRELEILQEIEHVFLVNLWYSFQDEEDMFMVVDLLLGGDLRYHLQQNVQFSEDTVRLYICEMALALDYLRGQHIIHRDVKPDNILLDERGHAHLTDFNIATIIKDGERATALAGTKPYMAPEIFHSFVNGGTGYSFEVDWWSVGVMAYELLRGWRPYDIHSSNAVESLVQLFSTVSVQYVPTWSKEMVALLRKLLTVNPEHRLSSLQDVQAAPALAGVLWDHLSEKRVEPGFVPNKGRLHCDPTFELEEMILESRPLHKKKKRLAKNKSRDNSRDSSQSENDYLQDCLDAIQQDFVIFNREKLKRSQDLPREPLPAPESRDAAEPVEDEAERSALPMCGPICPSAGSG

[44] = molecular target: Muscarinic acetylcholine receptor M3 (Homo sapiens) (UniProt P20309); settings: Compound concentration 10.0 uM
[45] = molecular target: Muscarinic acetylcholine receptor M4 (Homo sapiens) (UniProt P08173); settings: Compound concentration 10.0 uM

With `O=C(N[C@H]1CCCCC/C=C\C2C[C@@]2(C(=O)O)NC(=O)[C@@H]2C[C@@H](Oc3ccncc3)CN2C1=O)OC1CCCC1` (stereo not given in full) [BI 1675] the residual activity [1] was 100%, the residual activity [2] was 85% and the residual activity [3] was 100%. It also gave a residual activity [4] of 95%, a residual activity [5] of 63% and a residual activity [6] of 95%. It also gave a residual activity [7] of 90%, a residual activity [8] of 90% and a residual activity [9] of 100%. The residual activity [10] was 83%, the residual activity [11] was 100% and the residual activity [12] was 81%. It also gave a residual activity [13] of 41%, a residual activity [14] of 100% and a residual activity [15] of 100%. The residual activity [16] was 100%, the residual activity [17] was 71% and the residual activity [18] was 100%. The residual activity [19] was 100%, the residual activity [20] was 100% and the residual activity [21] was 97%. The residual activity [22] was 93%, the residual activity [23] was 93% and the residual activity [24] was 100%. For the same molecule, the residual activity [25] was 99%, the residual activity [26] was 91% and the residual activity [27] was 89%. For the same molecule, the residual activity [28] was 92%, the residual activity [29] was 100% and the residual activity [30] was 99%. For the same molecule, the residual activity [31] was 83%, the residual activity [32] was 92% and the residual activity [33] was 98%. For the same molecule, the residual activity [34] was 71%, the residual activity [35] was 100% and the residual activity [36] was 63%. The residual activity [37] was 89%, the residual activity [38] was 100% and the residual activity [39] was 100%. The residual activity [40] was 100%, the residual activity [41] was 82% and the residual activity [42] was 100%. It also gave a residual activity [43] of 100%, an inhibition [44] of -5.57% and an inhibition [45] of 9.48%.

`COc1ccc2c(O[C@@H]3C[C@H]4C(=O)N[C@]5(C(=O)O)CC5/C=C\CCCCC[C@H](NC(=O)OC5CCCC5)C(=O)N4C3)cc(-c3csc(NC(=O)C(C)C)n3)nc2c1C` (stereo not given in full) [BI 1230] showed a residual activity [1] of 92%, a residual activity [2] of 74% and a residual activity [3] of 100%. For the same molecule, the residual activity [4] was 97%, the residual activity [5] was 97% and the residual activity [6] was 100%. The residual activity [7] was 95%, the residual activity [8] was 77% and the residual activity [9] was 74%. It also gave a residual activity [10] of 77%, a residual activity [11] of 94% and a residual activity [12] of 100%. For the same molecule, the residual activity [13] was 50%, the residual activity [14] was 100% and the residual activity [15] was 100%. For the same molecule, the residual activity [16] was 96%, the residual activity [17] was 80% and the residual activity [18] was 100%. It also gave a residual activity [19] of 100%, a residual activity [20] of 100% and a residual activity [21] of 99%. It also gave a residual activity [22] of 88%, a residual activity [23] of 100% and a residual activity [24] of 86%. For the same molecule, the residual activity [25] was 100%, the residual activity [26] was 74% and the residual activity [27] was 60%. For the same molecule, the residual activity [28] was 100%, the residual activity [29] was 96% and the residual activity [30] was 99%. For the same molecule, the residual activity [31] was 100%, the residual activity [32] was 99% and the residual activity [33] was 70%. The residual activity [34] was 77%, the residual activity [35] was 96% and the residual activity [36] was 93%. It also gave a residual activity [37] of 57%, a residual activity [38] of 96% and a residual activity [39] of 88%. For the same molecule, the residual activity [40] was 86%, the residual activity [41] was 100% and the residual activity [42] was 94%. For the same molecule, the residual activity [43] was 63%, the inhibition [44] was 0.21% and the inhibition [45] was 10.2%.
